Here are results for one substance from patent EP1518554A1, “Pharmaceutical composition for the treatment of hyperhomocysteinemia” (Medosan Industrie Biochimiche Riunite S.r.l., priority 2003, dated 2005).

The assay concerns homocysteine ematic level. As to the kind of experiment: Randomised clinical study in patients with hyperhomocysteinemia; plasma homocysteine determined by immunoenzymatic test (EIA) at enrolment and after 30 days of treatment. In kind it is in vivo. From the text: Assessments about the pharmacological effectiveness of the composition according to the present invention have been carried out according to the following study protocol.
The experimentation has examined a total number of 60 patients assigned to one of the two treatment groups (30 patients to group A and 30 patients to group B).
• Patients of both sexes • Age older than 18 • Homocysteinemia level >15 µmol/l
• Patients suffering from diseases interfering with the homocysteine dosage • Patients in therapy with drugs interfering with the homocysteine metabolism (isoniazid, antiepileptic, methotrexate) • Subjects with ascertained individual hypersensitivity towards the active principles and/of the excipients of the product • Women during pregnancy or puerperium • Patients suffering from diabetes mellitus […]
The obtained data have been assessed statistically withe Student's t test and the significance is expressed as follows: P<0.05*; P<0.01**; P<0.001***

Consider arginine glutamate, for which, under “general statement of the applicant's experimental data, dose and duration not stated at the place”, the “reduction in the homocysteine plasmatic levels” value is 10-15%. Besides, the “reduction in the homocysteine plasmatic values” (patients with homocysteinemia >15 µmol/l, 10-ml small bottle which can be drunk, twice a day for 30 days, 30 patients per group, Student's t test (composition 9 p≤0.001; arginine glutamate only p≤0.01)) is 12%.
